Among the test systems are SK-MEL-28 melanoma; IGROV1 ovarian; A549 NSCLC; UACC-257 melanoma; A498 renal; HCT-116 colon; OVCAR-5 ovarian; HOP-62 NSCLC; MALME-3M melanoma; SK-OV-3 ovarian; 786-0 renal; NCI-H460 lung.
What all share (assay): inhibition of tumour cell growth, NCI panel, 48 h

Molecules are shown by their SMILES.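 Five compound concentrations were applied to cells in 96-well plates for 48 hours; endpoints were derived by simple linear interpolation of the resulting dose-response curve. TGI: concentration producing complete growth inhibition.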 A value given as a limit tells only on which side of the number the result lay.

TGI data for 12 compounds are collected here from PubChem BioAssay (NCI).

For the compound `COc1cccc2c1C(=O)c1ccc3cc(CO)cc(O)c3c1C2=O`, the TGI in the experiment with SK-MEL-28 melanoma came to 5.61 µM; with IGROV1 ovarian, 3.33 µM; in the experiment with A549 NSCLC, 2.76 µM; in the experiment with UACC-257 melanoma, 0.412 µM; in the experiment with A498 renal, 9.62 µM; in the experiment on HCT-116 colon, 0.787 µM. For the same compound, the TGI with OVCAR-5 ovarian was 3.92 µM; in the experiment on HOP-62 NSCLC, 6.33 µM; in the experiment on MALME-3M melanoma, 0.202 µM; with SK-OV-3 ovarian, 8.61 µM; in the experiment on 786-0 renal, 4.24 µM; with NCI-H460 lung, 1.17 µM.
Consider `CC1(C)SC2C(NC(=O)Cc3ccccc3)C(=O)N2C1C(=O)O` (stereo unspecified), for which the TGI in the experiment on SK-MEL-28 melanoma, in the experiment on IGROV1 ovarian, in the experiment on A549 NSCLC, with UACC-257 melanoma, in the experiment with A498 renal and in the experiment with HCT-116 colon was over 100 µM in each case. Also, the TGI with OVCAR-5 ovarian, in the experiment with HOP-62 NSCLC, in the experiment on MALME-3M melanoma, in the experiment with SK-OV-3 ovarian, in the experiment on 786-0 renal and in the experiment with NCI-H460 lung was over 100 µM throughout.
On to `Cc1cc2c(cc1Cl)Sc1nnc(C)n1S2(=O)=O`, for which the TGI came to 31.5 µM in the experiment on SK-MEL-28 melanoma; 29.1 µM with IGROV1 ovarian; 97.2 µM with A549 NSCLC; 30.5 µM in the experiment on UACC-257 melanoma; 40.2 µM in the experiment with A498 renal; 45.4 µM in the experiment on HCT-116 colon. Moreover, the TGI in the experiment on OVCAR-5 ovarian was 97.7 µM; with HOP-62 NSCLC, 57.9 µM; in the experiment on MALME-3M melanoma it was 22.8 µM; in the experiment with SK-OV-3 ovarian, 75.2 µM; in the experiment on 786-0 renal, 44.5 µM; with NCI-H460 lung it was 78.5 µM.
Take `O=S(=O)(O)Nc1ccc(-c2nc3ccccc3s2)cc1Cl`: the TGI with SK-MEL-28 melanoma, with IGROV1 ovarian, in the experiment on A549 NSCLC, in the experiment with UACC-257 melanoma, in the experiment on A498 renal and in the experiment with HCT-116 colon was over 100 µM throughout. Besides, the TGI in the experiment on OVCAR-5 ovarian, in the experiment with HOP-62 NSCLC, in the experiment on MALME-3M melanoma, in the experiment on SK-OV-3 ovarian, in the experiment with 786-0 renal and in the experiment on NCI-H460 lung was over 100 µM each time.
With `Cc1ccnc2c1c(=O)c1ccccc1n2C`, the TGI with SK-MEL-28 melanoma, with IGROV1 ovarian, with UACC-257 melanoma, with A498 renal, with HCT-116 colon and with OVCAR-5 ovarian was over 100 µM each time. The TGI in the experiment with HOP-62 NSCLC was over 100 µM; in the experiment on MALME-3M melanoma, over 100 µM; in the experiment with SK-OV-3 ovarian, over 100 µM; in the experiment with 786-0 renal it was over 100 µM; with NCI-H460 lung, 44.9 µM.
As to `Cc1ccc(-c2c(C#N)c(S)n(NS(=O)(=O)c3ccccc3)c(=O)c2C#N)cc1`, the TGI in the experiment on SK-MEL-28 melanoma is over 100 µM; in the experiment with IGROV1 ovarian it was 85.4 µM; with A549 NSCLC, over 100 µM; in the experiment on UACC-257 melanoma it was over 100 µM; with A498 renal, over 100 µM; in the experiment with HCT-116 colon, over 100 µM. The TGI was over 100 µM in the experiment with OVCAR-5 ovarian; over 100 µM in the experiment with MALME-3M melanoma; over 100 µM in the experiment with SK-OV-3 ovarian; over 100 µM in the experiment on 786-0 renal; 31.3 µM in the experiment with NCI-H460 lung.
Consider `Cc1[nH]n(-c2nc(O)c(C)c(=O)[nH]2)c(=O)c1CCO`, for which the TGI with SK-MEL-28 melanoma, with IGROV1 ovarian, in the experiment with A549 NSCLC, in the experiment on UACC-257 melanoma, with A498 renal and in the experiment with HCT-116 colon was over 100 µM each time. For the same compound, the TGI with OVCAR-5 ovarian, in the experiment on MALME-3M melanoma, with SK-OV-3 ovarian, in the experiment on 786-0 renal and in the experiment on NCI-H460 lung was over 100 µM in each case.
As to `CSc1cc(Cl)c(C)cc1S(=O)(=O)NC(=O)NNc1ccccn1`, the TGI in the experiment on SK-MEL-28 melanoma, with IGROV1 ovarian, with A549 NSCLC, in the experiment on A498 renal, with HCT-116 colon and in the experiment with OVCAR-5 ovarian was over 100 µM in each case. Also, the TGI in the experiment with HOP-62 NSCLC, in the experiment with MALME-3M melanoma, in the experiment on SK-OV-3 ovarian, with 786-0 renal and in the experiment on NCI-H460 lung was over 100 µM each time.
In the case of `O=C(/C(Cl)=C/c1ccccc1)c1ccccc1`, the TGI with SK-MEL-28 melanoma is 6.06 µM; in the experiment with A549 NSCLC, 34.1 µM; in the experiment on UACC-257 melanoma it was 19.3 µM; with A498 renal, 46.1 µM; with HCT-116 colon it was 2.78 µM; in the experiment on OVCAR-5 ovarian, 19.8 µM. In addition, the TGI in the experiment with HOP-62 NSCLC came out at 41.5 µM; in the experiment with MALME-3M melanoma, 4.39 µM; with SK-OV-3 ovarian, 39.8 µM; in the experiment on 786-0 renal, 3.37 µM; in the experiment with NCI-H460 lung, 30.5 µM.
In the case of `COC(=O)c1cc(C)ccc1CC(Cc1ccccc1C)C(=O)OC` (stereo unspecified), the TGI in the experiment with SK-MEL-28 melanoma is over 100 µM; with IGROV1 ovarian, over 100 µM; in the experiment on A549 NSCLC, over 100 µM; in the experiment on UACC-257 melanoma, 91.9 µM; in the experiment with A498 renal, over 100 µM; in the experiment with HCT-116 colon, over 100 µM. Moreover, the TGI with HOP-62 NSCLC, in the experiment with MALME-3M melanoma, with SK-OV-3 ovarian, with 786-0 renal and in the experiment with NCI-H460 lung was over 100 µM each time.
As for `COc1ccc(/C=N/n2c(C)n[nH]c2=O)cc1`, the TGI in the experiment with SK-MEL-28 melanoma, in the experiment on A549 NSCLC, in the experiment on UACC-257 melanoma, in the experiment with A498 renal, in the experiment with HCT-116 colon and with OVCAR-5 ovarian was over 100 µM throughout. The TGI with HOP-62 NSCLC, in the experiment with MALME-3M melanoma, in the experiment on SK-OV-3 ovarian, in the experiment on 786-0 renal and with NCI-H460 lung was over 100 µM throughout.
Consider `C=CCOc1ccc(C2c3c([nH][nH]c3=O)CC(C)(O)C2C(=O)OC)cc1OC` (stereo unspecified), for which the TGI with SK-MEL-28 melanoma, in the experiment with IGROV1 ovarian, in the experiment with A549 NSCLC, in the experiment with UACC-257 melanoma, with A498 renal and in the experiment with HCT-116 colon was over 100 µM throughout. The TGI with OVCAR-5 ovarian, with HOP-62 NSCLC, in the experiment on MALME-3M melanoma, with 786-0 renal and with NCI-H460 lung was over 100 µM each time.
